The nature of the experiment: A2 PI3Kdelta Scintillation Proximity Assay: Lipid kinase substrate, phosphoinositol-4,5-bisphosphate (PIP2), are purchased from Echelon Biosciences (Salt Lake City, Utah). PI3K isoforms α, β, δ and γ are purchased from Millipore (Bedford, Mass.). ATP, MgCl2, DTT, EDTA, MOPS and CHAPS are purchased from Sigma-Aldrich (St. Louis, Mo.). The kinase reaction are conducted in clear-bottom 96-well plate from Thermo Fisher Scientific in a final volume of 24 μL. Inhibitors are first diluted serially in DMSO and added to the plate wells before the addition of other reaction components. The final concentration of DMSO in the assay is 0.5%. The PI3K assays are carried out at room temperature in 20 mM MOPS, pH 6.7, 10 mM MgCl2, 5 mM DTT and CHAPS 0.03%. The reaction mixture is prepared containing 50 μM PIP2, kinase and varying concentration of inhibitors. Reactions are initiated by the addition of ATP containing 2.2 μCi [γ-33P]ATP to a final concentration of 1000 μM. The final concentration of PI3K isoforms α, β, δ and γ in the assay were 1.3, 9.4, 2.9 and 10.8 nM, respectively. Reactions are incubated for 180 minutes and terminated by the addition of 100 μL of 1 M potassium phosphate pH 8.0, 30 mM EDTA quench buffer. A 100 μL aliquot of the reaction solution are then transferred to 96-well Millipore MultiScreen IP 0.45 μm PVDF filter plate (The filter plate is prewetted with 200 μL 100% ethanol, distilled water, and 1 M potassium phosphate pH 8.0, respectively). The filter plate is aspirated on a Millipore Manifold under vacuum and washed with 18×200 μL wash buffer containing 1 M potassium phosphate pH 8.0 and 1 mM ATP. After drying by aspiration and blotting, the plate is air dried in an incubator at 37° C. overnight. Packard TopCount adapter (Millipore) is then attached to the plate followed with addition of 120 μL Microscint 20 scintillation cocktail (Perkin Elmer) in each well. After the plate sealing, the radioactivity of the product is determined by scintillation counting on Topcount (Perkin-Elmer). IC50 determination is performed by fitting the curve of percent control activity versus the log of the inhibitor concentration using the GraphPad Prism 3.0 software. Further details: species or system Homo sapiens.

Take `COc1c(C(C)n2nc(C)c3c(N)ncnc32)cc(Cl)c(C)c1C1CN(C[C@H](C)O)C1` (stereo partly drawn): the IC50 was less than 10 nM. On to `COc1c(C(C)n2nc(C(F)F)c3c(N)ncnc32)cc(C#N)c(C)c1C1CN(C[C@H](C)O)C1` (stereo partly drawn), for which the IC50 was less than 10 nM. The same measure for `COc1c(C(C)n2nc(C)c3c(N)ncnc32)cc(Cl)c(C#N)c1C1CN(CCO)C1` (stereo not drawn): less than 10 nM; for `COc1c([C@@H](C)n2nc(C(F)F)c3c(N)ncnc32)cc(Cl)c(F)c1C1CN(C)C1`: less than 10 nM.

For the compound `CCOc1c([C@H](C)n2nc(C)c3c(N)ncnc32)cc(Cl)c(C#N)c1C1CN(C(C)CO)C1` (stereo partly drawn), the IC50 is less than 10 nM. With `COc1c([C@@H](C)n2nc(C)c3c(N)ncnc32)cc(Cl)c(C#N)c1C1CN(C(C)CO)C1` (stereo partly drawn), the IC50 was less than 10 nM. The same measure for `CCOc1c(C(C)n2nc(C)c3c(N)ncnc32)cc(Cl)c(F)c1C1CN(C[C@H](C)O)C1` (stereo partly drawn): less than 10 nM; for `CCOc1c([C@@H](C)n2nc(C)c3c(N)ncnc32)cc(Cl)c(C#N)c1C1CN(C(C)CO)C1` (stereo partly drawn): less than 10 nM. The same measure for `COc1c([C@@H](C)n2nc(C)c3c(N)ncnc32)cc(Cl)c(C#N)c1C1CN(C2CCOC2)C1` (stereo partly drawn): less than 10 nM; for `COc1c(C(C)n2nc(C)c3c(N)ncnc32)cc(Cl)c(C)c1-c1ccc(C(=O)N(C)C)nc1` (stereo not drawn): less than 10 nM; for `COc1c([C@@H](C)n2nc(C)c3c(N)ncnc32)cc(Cl)c(C#N)c1C1CN(CC2CCOC2)C1` (stereo partly drawn): less than 10 nM. The same measure for `CCOc1c([C@H](C)n2nc(C)c3c(N)ncnc32)cc(Cl)c(C#N)c1C1CN(CCOC)C1`: less than 10 nM. As for `COc1c([C@H](C)n2nc(C)c3c(N)ncnc32)cc(Cl)c(C#N)c1C1CN(C(C)CO)C1` (stereo partly drawn), the half-maximal inhibitory concentration (IC50) is less than 10 nM. The same measure for `CCOc1c(C(C)n2nc(C)c3c(N)ncnc32)cc(Cl)c(C)c1-c1ccc(C(=O)N(C)C)nc1` (stereo not drawn): less than 10 nM. The same measure for `COc1c(C(C)n2cc(C)c3c(N)ncnc32)cc(Cl)c(C#N)c1C1CN(C(C)C)C1` (stereo not drawn): less than 10 nM; for `COc1c([C@H](C)n2nc(C)c3c(N)ncnc32)cc(Cl)c(C#N)c1C1CN(CC2CCOC2)C1` (stereo partly drawn): less than 10 nM. `COc1c([C@@H](C)n2nc(C(F)F)c3c(N)ncnc32)cc(Cl)c(F)c1C1CN(CCO)C1` (single isomer, unassigned): the IC50 is less than 10 nM.

Consider `CCOc1c([C@@H](C)n2nc(C)c3c(N)ncnc32)cc(Cl)c(F)c1C1CN(C(C)C)C1` (single isomer, unassigned), for which the IC50 is less than 10 nM.

The values above are taken from ChEMBL document CHEMBL5725495, “Heterocyclylamines as PI3K inhibitors” (2017).
